Values of other authors as cited in patent US10537125B2, “Chlorine dioxide gas releasing package label insert for enhancing microbial safety of food” (priority 2016, dated 2020).

Columns and labels:
[1] = at 20° C. and 760 mm Hg
Salmonella [2] = details: constant ClO2 0.5 mg/L air for 15, 30, and 60 min
Salmonella [3] = details: one-time application, treatment time 6 min to 120 min

Which solubility in water [1] does the source give for [O][Cl+][O-] [ClO2, chlorine dioxide] here?
The solubility in water was “about 70 g/L”.

And the “reduction of Salmonella on mung bean sprouts” value (Salmonella [2])?
Its value is “up to 4 log CFU Salmonella/g”.

And the “Salmonella inactivation range reported by others” value (Salmonella [3])?
Its value is 1.54-5.15 log.
